Test results as given in patent US20140112878A1, “Tyrosinase Inhibitor” (priority 2012, published 2014).

Columns and labels:
[1] = biological target: T1, human tyrosinase (neonatal epidermal melanocyte extract) (Homo sapiens, UniProt P14679); assay: DOPA oxidase activity (MBTH method) in cell extract; format: biochemical; conditions: for DOPA oxidase activity, value relative to that of the control: N=3; for DOPA oxidase activity suppressive effect (in words): IPMP 0.00075 to 0.015 w/v %
T1 construct: host or cells: normal human neonatal epidermal melanocytes (NHEMs), detergent/ultrasonication lysate supernatant
T1 sequence (P14679 19-529): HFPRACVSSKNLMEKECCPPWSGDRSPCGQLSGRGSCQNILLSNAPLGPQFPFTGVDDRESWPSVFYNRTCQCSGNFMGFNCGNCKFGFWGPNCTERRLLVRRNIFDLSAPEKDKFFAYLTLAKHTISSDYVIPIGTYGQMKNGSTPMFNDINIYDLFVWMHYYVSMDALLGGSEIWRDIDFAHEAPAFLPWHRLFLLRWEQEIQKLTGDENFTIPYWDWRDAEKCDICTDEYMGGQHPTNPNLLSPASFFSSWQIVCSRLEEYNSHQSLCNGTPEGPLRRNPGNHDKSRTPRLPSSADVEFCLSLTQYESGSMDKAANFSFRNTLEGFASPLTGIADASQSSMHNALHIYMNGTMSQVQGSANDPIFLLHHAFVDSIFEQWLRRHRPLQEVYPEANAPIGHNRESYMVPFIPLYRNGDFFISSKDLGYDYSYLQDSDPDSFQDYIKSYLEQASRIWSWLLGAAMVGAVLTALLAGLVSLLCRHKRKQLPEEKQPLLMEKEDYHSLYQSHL
Method: The cells were then treated with ultrasonication, and were centrifuged at 15000 r.p.m. for 10 minutes, and the supernatant was obtained.
Tyrosinase activity was measured using the cell extract mentioned above. […] Then, 20 μL of the following test compounds were added to the wells so that the mixture reaches the final concentration shown in Table 1.

[2] = system: Normal human neonatal epidermal melanocytes (NHEMs); assay: Alamar blue cell respiration activity (cell toxicity); format: cell-based; conditions: for Alamar blue (cell toxicity) AVE: cultured NHEMs
Method: (§1) Medium 254 containing a PMA-free growth supplement (HMGS) was used as a medium.
(§2) After cultivating for 3 days, Endotheline-1 (ET-1), SCF, α-MSH, Histamine, and PGE2, each prepared to be the final concentration of 1 nM in the medium, were added. The same test compounds used in Example 1 were also added so as to reach the final concentration. The mixture was cultured at 37° C. for 3 days, in the presence of 5% CO2. The same amount of DMSO was added as a control.
After the completion of the cultivation, 20 L/well of alamar blue reagent (Invitrogen Corporation) was added. After incubating for 2 to 3 hours, the fluorescence intensity of the medium was measured to monitor the cell respiration activity. Then, the cells were washed with PBS, and 20 μL/well of extraction buffer (0.1 M Tris-HCL (pH 7.2), 1% NP-40, 0.01% SDS, 100 μM PMSF, 1 μg/m aprotinin) and 20 μL/well of Assay Buffer (4% dimethylformamide, 100 mM Sodium phosphate-buffered (pH 7.1)) were added. The cells were solubilized at 4° C. for 3 hours, and DOPA oxidase activity was measured.

[3] = biological target: T2, tyrosinase (DOPA oxidase activity) in normal human neonatal epidermal melanocytes (NHEMs) (Homo sapiens, UniProt P14679); assay: DOPA oxidase activity in cultured normal human neonatal epidermal melanocytes
T2 sequence (P14679 19-529): T1 sequence (P14679 19-529)
Method: as §1, §2
After the completion of the cultivation, 20 L/well of alamar blue reagent (Invitrogen Corporation) was added. After incubating for 2 to 3 hours, the fluorescence intensity of the medium was measured to monitor the cell respiration activity. Then, the cells were washed with PBS, and 20 μL/well of extraction buffer (0.1 M Tris-HCL (pH 7.2), 1% NP-40, 0.01% SDS, 100 μM PMSF, 1 μg/m aprotinin) and 20 μL/well of Assay Buffer (4% dimethylformamide, 100 mM Sodium phosphate-buffered (pH 7.1)) were added. The cells were solubilized at 4° C. for 3 hours, and DOPA oxidase activity was measured. DOPA oxidase activity was measured according to the following method, with reference to the MBTH method (Winder A. et al., 1991, Eur. J. Biochem. 198:317-326).
80 μL of the above-mentioned Assay Buffer, 60 μL of 20.7 mM MBTH (3-methyl-2-benzothiazolinone hydrazone) solution, and 40 μL of 5 mM L-DOPA (L-dihydroxyphenylalanine) solution as a substrate, were added to each well of solubilized cell solution, and the mixture was allowed for reaction at 37° C. for 30 to 60 minutes. Then the color reaction was measured based on absorbance at 490 nm (N=3). The measurements are expressed as values relative to that of the control.

[4] = system: mushroom-derived tyrosinase; conditions: reported in JP-A-9-249544; cited from earlier work
[5] = system: mouse melanoma B-16 cells; conditions: reported in JP-A-9-249544; cited from earlier work
[6] = 0.67 μM (0.00001 w/v %), Example 3
[7] = 10 μM (IPMP 0.00015 w/v %), 3 days, Example 2
[8] = 100 μM (IPMP 0.0015 w/v %), 3 days, Example 2
[9] = 167.5 μM (0.0025 w/v %), Example 3

Row | DOPA oxidase activity, value relative to that of the control ([1]; 50 μM (IPMP 0.00075%)) | DOPA oxidase activity, value relative to that of the control ([1]; 100 μM (IPMP […])) | DOPA oxidase activity, value relative to that of the control ([1]; 500 μM (IPMP 0.0075%)) | DOPA oxidase activity, value relative to that of the control ([1]; 1000 μM (IPMP […])) | DOPA oxidase activity AVE, relative to control [3, 7] | DOPA oxidase activity AVE, relative to control [3, 8] | SMILES | Alamar blue (cell toxicity) AVE [2, 7] | Alamar blue (cell toxicity) AVE [2, 8] | DOPA oxidase activity suppressive effect (in words) [1] | Inhibitory activity on mushroom-derived tyrosinase (in words) [4] | Suppressive effect on melanin production (in words) [5] | DOPA oxidase activity suppressive effect (in words) ([3]; Example 2) | also measured
1 | 83.1 ± 3.9 | 62.9 ± 3.5 | 32.8 ± 3.7 | 19.8 ± 1.2 | 74.8 | 50.6 | Cc1cc(O)ccc1C(C)C [IPMP, isopropylmethylphenol] | 94.1 | 127 |  |  |  |  | Alamar blue (cell toxicity) AVE [2, 6]: 84.9; Alamar blue (cell toxicity) AVE ([2]; 6.7 μM (6.0001 w/v %), Example 3): 85.4; Effect on cell growth (in words) ([2]; 0.00001 to 0.0025 w/v %, Example 3): did not affect cell growth; Alamar blue (cell toxicity) AVE ([2]; 67 μM (0.001 w/v %), Example 3): 78.9; Alamar blue (cell toxicity) AVE [2, 9]: 77.0; Effect on cell growth (alamar blue method, in words) ([2]; at the concentration which showed DOPA oxidase activity suppressive effect, Example 2): did not affect cell growth; DOPA oxidase activity AVE, relative to control [3, 6]: 73.7; DOPA oxidase activity AVE, relative to control ([3]; 6.7 μM, Example 3): 56.5; DOPA oxidase activity AVE, relative to control ([3]; 67 μM (0.001 w/v %), Example 3): 33.9; DOPA oxidase activity AVE, relative to control [3, 9]: 25.6
2 |  |  |  |  |  |  | O=c1cc(CO)occ1O [Kojic acid] | 118.3 | 114.4 |  |  |  |  | 
3 | 103.7 ± 0.9 | 93.8 ± 1.6 | 104.4 ± 0.8 | 105.4 ± 0.5 | 98.6 | 95 | Cc1ccc(C(C)C)c(O)c1 [compound 1, thymol] | 84.9 | 104.4 | did not show DOPA oxidase activity suppressive effect | exhibit inhibitory activity on mushroom-derived tyrosinase | exhibit suppressive effect on melanin production | did not show DOPA oxidase activity suppressive effect | 

Row | SMILES | DOPA oxidase activity, value relative to that of the control ([1]; 50 μM (IPMP 0.00075%)) | DOPA oxidase activity, value relative to that of the control ([1]; 100 μM (IPMP […])) | DOPA oxidase activity, value relative to that of the control ([1]; 500 μM (IPMP 0.0075%)) | DOPA oxidase activity, value relative to that of the control ([1]; 1000 μM (IPMP […])) | DOPA oxidase activity AVE, relative to control [3, 7] | DOPA oxidase activity AVE, relative to control [3, 8] | Alamar blue (cell toxicity) AVE [2, 7] | Alamar blue (cell toxicity) AVE [2, 8] | DOPA oxidase activity suppressive effect (in words) [1] | Inhibitory activity on mushroom-derived tyrosinase (in words) [4] | Suppressive effect on melanin production (in words) [5] | DOPA oxidase activity suppressive effect (in words) ([3]; Example 2) | also measured
4 | Cc1ccc(C(C)C)cc1O [compound 2, carvacrol] | 102.1 ± 0.5 | 96.9 ± 1.8 | 99.6 ± 1.8 | 97.8 ± 1.9 | 99.3 | 96.3 | 94.2 | 115.2 | did not show DOPA oxidase activity suppressive effect | exhibit inhibitory activity on mushroom-derived tyrosinase | exhibit suppressive effect on melanin production | did not show DOPA oxidase activity suppressive effect | 
